The record followed here is ChEMBL document CHEMBL1240351, “Molecular epidemiology of metallo-beta-lactamase-producing Pseudomonas aeruginosa isolates from Norway and Sweden shows import of international clones and local clonal expansion” (2010).

In brackets after ≈: the same amount, converted by molar mass.

Holding throughout (type): functional
The subject of assay [1] is Pseudomonas aeruginosa. Description: Antimicrobial activity against Pseudomonas aeruginosa isolate BU-43038 producing metallo-beta-lactamase VIM2 by Etest.
Assay [2] relates to Pseudomonas aeruginosa. The assay is described as follows: Antimicrobial activity against Pseudomonas aeruginosa isolate B4-25753 producing metallo-beta-lactamase VIM2 by Etest.
Assay [3] relates to Pseudomonas aeruginosa. Description: Antimicrobial activity against Pseudomonas aeruginosa isolate K34-73 producing metallo-beta-lactamase VIM4 by Etest.
For assay [4], the system named is Pseudomonas aeruginosa. The assay is described as follows: Antimicrobial activity against Pseudomonas aeruginosa isolate OS-210 producing metallo-beta-lactamase VIM2 by Etest.
Assay [5] deals with Pseudomonas aeruginosa. Description: Antimicrobial activity against Pseudomonas aeruginosa isolate U9-19005 producing metallo-beta-lactamase VIM2 by Etest.
The test system of assay [6] is Pseudomonas aeruginosa. The assay is described as follows: Antimicrobial activity against Pseudomonas aeruginosa isolate K45-32 producing metallo-beta-lactamase VIM2 by Etest.
Assay [7] deals with Pseudomonas aeruginosa. Description: Antimicrobial activity against Pseudomonas aeruginosa isolate K34-7 producing metallo-beta-lactamase VIM2 by Etest.
The subject of assay [8] is Pseudomonas aeruginosa. The assay is described as follows: Antimicrobial activity against Pseudomonas aeruginosa isolate AK5493 producing metallo-beta-lactamase VIM2 by Etest.
The test system of assay [9] is Pseudomonas aeruginosa. The assay is described as follows: Antimicrobial activity against Pseudomonas aeruginosa isolate BNL-1681 producing metallo-beta-lactamase VIM2 by Etest.
The test system of assay [10] is Pseudomonas aeruginosa. Description: Antimicrobial activity against Pseudomonas aeruginosa isolate BU-20287 producing metallo-beta-lactamase VIM2 by Etest.
Assay [11] deals with Pseudomonas aeruginosa. The assay is described as follows: Antimicrobial activity against Pseudomonas aeruginosa isolate PA66 producing metallo-beta-lactamase VIM4 by Etest.
Assay [12] has as its system Pseudomonas aeruginosa. The assay is described as follows: Antimicrobial activity against Pseudomonas aeruginosa isolate K44-24 producing metallo-beta-lactamase IMP14 by Etest.
Assay [13] relates to Pseudomonas aeruginosa. Description: Antimicrobial activity against Pseudomonas aeruginosa isolate BU-36178 producing metallo-beta-lactamase VIM2 by Etest.

Broadly, the MIC is the lowest concentration found to suppress growth. Turning to `NCC[C@H](O)C(=O)N[C@@H]1C[C@H](N)[C@@H](O[C@H]2O[C@H](CN)[C@@H](O)[C@H](O)[C@H]2O)[C@H](O)[C@H]1O[C@H]1O[C@H](CO)[C@@H](O)[C@H](N)[C@H]1O` [AMIKACIN], the MIC with Pseudomonas aeruginosa [1], with Pseudomonas aeruginosa [2], with Pseudomonas aeruginosa [3], against Pseudomonas aeruginosa [4], with Pseudomonas aeruginosa [5] and against Pseudomonas aeruginosa [6] was 32 µg/mL (≈ 54.6 µM) each time. In addition, the MIC in the assay with Pseudomonas aeruginosa [7], with Pseudomonas aeruginosa [8], against Pseudomonas aeruginosa [9], against Pseudomonas aeruginosa [10], with Pseudomonas aeruginosa [11] and in the assay with Pseudomonas aeruginosa [12] was 32 µg/mL (≈ 54.6 µM) each time. The molecule further displayed an MIC with Pseudomonas aeruginosa [13] of 32 µg/mL (≈ 54.6 µM).
Turning to `O=C(O)C1=CC[C@@H]2CC(=O)N12` [CARBAPENEM], the minimum inhibitory concentration (MIC) with Pseudomonas aeruginosa [1], against Pseudomonas aeruginosa [2], in the assay on Pseudomonas aeruginosa [3], in the assay with Pseudomonas aeruginosa [4], against Pseudomonas aeruginosa [5] and against Pseudomonas aeruginosa [6] was over 32 µg/mL in each case. The minimal inhibitory concentration (MIC) in the assay on Pseudomonas aeruginosa [7], with Pseudomonas aeruginosa [8], in the assay with Pseudomonas aeruginosa [9], against Pseudomonas aeruginosa [10], with Pseudomonas aeruginosa [11] and in the assay on Pseudomonas aeruginosa [12] was over 32 µg/mL each time. The MIC against Pseudomonas aeruginosa [13] is over 32 µg/mL.
Turning to `CO/N=C(\C(=O)N[C@@H]1C(=O)N2C(C(=O)[O-])=C(C[N+]3(C)CCCC3)CS[C@H]12)c1csc(N)n1` [CEFEPIME], the MIC in the assay on Pseudomonas aeruginosa [1], against Pseudomonas aeruginosa [2], against Pseudomonas aeruginosa [3], against Pseudomonas aeruginosa [4], against Pseudomonas aeruginosa [5] and in the assay with Pseudomonas aeruginosa [6] was 32 µg/mL (≈ 66.6 µM) throughout. For the same molecule, the MIC against Pseudomonas aeruginosa [7], in the assay on Pseudomonas aeruginosa [8], in the assay with Pseudomonas aeruginosa [9], against Pseudomonas aeruginosa [10], against Pseudomonas aeruginosa [11] and against Pseudomonas aeruginosa [12] was 32 µg/mL (≈ 66.6 µM) in each case. In addition, the MIC against Pseudomonas aeruginosa [13] worked out at 32 µg/mL (≈ 66.6 µM).
As to `CC(C)(O/N=C(\C(=O)N[C@@H]1C(=O)N2C(C(=O)[O-])=C(C[n+]3ccccc3)CS[C@H]12)c1csc(N)n1)C(=O)O` [CEFTAZIDIME], the MIC against Pseudomonas aeruginosa [1], against Pseudomonas aeruginosa [2], against Pseudomonas aeruginosa [3], with Pseudomonas aeruginosa [4], with Pseudomonas aeruginosa [5] and with Pseudomonas aeruginosa [6] was 64 µg/mL (≈ 117 µM) in each case. Further, the MIC against Pseudomonas aeruginosa [7], against Pseudomonas aeruginosa [8], in the assay on Pseudomonas aeruginosa [9], against Pseudomonas aeruginosa [10], against Pseudomonas aeruginosa [11] and against Pseudomonas aeruginosa [12] was 64 µg/mL (≈ 117 µM) throughout. In the assay on Pseudomonas aeruginosa [13], this molecule had an MIC of 64 µg/mL (≈ 117 µM).
For the molecule `O=C(O)c1cn(C2CC2)c2cc(N3CCNCC3)c(F)cc2c1=O` [CIPROFLOXACIN], the MIC with Pseudomonas aeruginosa [1], against Pseudomonas aeruginosa [2], with Pseudomonas aeruginosa [3], against Pseudomonas aeruginosa [4], against Pseudomonas aeruginosa [5] and in the assay on Pseudomonas aeruginosa [6] was 16 µg/mL (≈ 48.3 µM) each time. The MIC in the assay with Pseudomonas aeruginosa [7], against Pseudomonas aeruginosa [8], against Pseudomonas aeruginosa [9], against Pseudomonas aeruginosa [10], against Pseudomonas aeruginosa [11] and with Pseudomonas aeruginosa [12] was 16 µg/mL (≈ 48.3 µM) throughout. In addition, the MIC in the assay with Pseudomonas aeruginosa [13] amounted to 16 µg/mL (≈ 48.3 µM).
In the case of `NC[C@H]1O[C@H](O[C@H]2[C@H](O)[C@@H](O[C@H]3O[C@H](CO)[C@@H](O)[C@H](N)[C@H]3O)[C@H](N)C[C@@H]2N)[C@H](N)C[C@@H]1O` [TOBRAMYCIN], the MIC in the assay on Pseudomonas aeruginosa [1], in the assay on Pseudomonas aeruginosa [2], in the assay with Pseudomonas aeruginosa [3], in the assay with Pseudomonas aeruginosa [4], with Pseudomonas aeruginosa [5] and against Pseudomonas aeruginosa [6] was 32 µg/mL (≈ 68.4 µM) throughout. Also, the MIC in the assay on Pseudomonas aeruginosa [7], in the assay on Pseudomonas aeruginosa [8], against Pseudomonas aeruginosa [9], in the assay with Pseudomonas aeruginosa [10], in the assay with Pseudomonas aeruginosa [11] and with Pseudomonas aeruginosa [12] was 32 µg/mL (≈ 68.4 µM) each time. The molecule also had an MIC against Pseudomonas aeruginosa [13] of 32 µg/mL (≈ 68.4 µM).
